Data set [1] concerns photosynthetic electron transport (PET) in spinach chloroplasts. Description: Inhibition of photosynthetic electron transport (PET) in spinach chloroplasts. It is filed as biochemical, Spinacia oleracea L. As to conditions: DCPIP photoreduction. The procedure, abridged: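 Chloroplasts in pH 7.2 phosphate buffer with sucrose, MgCl2, NaCl; chlorophyll 30 mg/L, halogen-lamp illumination at 22 °C, compounds in DMSO. PET followed spectrophotometrically as DCPIP photoreduction; IC50 is molar concentration giving 50% drop in oxygen evolution rate versus untreated control.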

The subject of the next data set is M. smegmatis ATCC 700084. Description: In vitro antimycobacterial evaluation (broth dilution MIC). The format is cell-based, Mycobacterium smegmatis. The settings on record: Mycolicibacterium smegmatis, ATCC700084, 72 h; M. smegmatis ATCC 700084, 3 days, 37 °C. A general note: In broth dilution the organism is exposed to a series of concentrations in liquid medium.

Data set [2] can be described thus: Lipophilicity determination by RP-HPLC (capacity factor log k). It is filed as physicochemical. As to conditions: isocratic, MeOH 60%/H2O 40%, C18. The procedure, abridged: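 Isocratic RP-HPLC on C18 column, MeOH/H2O 60:40, 1.0 mL/min, column 40 °C, UV detection 210 nm. Dead time taken from KI; k = (tR − tD)/tD, with log k used as lipophilicity index converted to log P scale.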

Data set [3] has as its system human monocytic leukemia THP-1 cells. Description: In vitro cytotoxicity assay (LDH). It is filed as cell-based. The settings on record: treatment with 20 µmol/L, 24 h. The method, then: Human monocytic leukemia THP-1 cells were obtained from the European Collection of Cell Cultures (ECACC, Salisbury, UK; Methods of characterization: DNA Fingerprinting (Multilocus probes) and isoenzyme analysis). These cells were routinely cultured in RPMI 1640 (Lonza, Verviers, Belgium) medium supplemented with 10% fetal bovine serum (FBS, Sigma-Aldrich), 2% L-glutamine, 1% penicillin and streptomycin (Lonza, Verviers, Belgium) at 37 °C with 5% CO2. Cells were passaged at approximately 1 week intervals. Cells were routinely tested for the absence of mycoplasma (Hoechst 33258 staining method). The tested compounds were dissolved in DMSO (Sigma-Aldrich) and added in five increasing concentrations to the cell suspension in the culture medium. The maximum concentration of DMSO in the assays never exceeded 0.1%. Subsequently, the cells were incubated for 24 h at 37 °C with 5% CO2 to various compound concentrations ranging from 0.37 to 20 μmol/L in RPMI 1640 medium. Cell toxicity was determined using a Cytotoxicity Detection Kit^PLUS Lactate dehydrogenase (LDH) assay kit (Roche Diagnostics, Mannheim, Germany) according to the manufacturer’s instructions, as described previously. […] All data were evaluated using GraphPad Prism 5.00 software (GraphPad Software, San Diego, CA, USA).

The subject of the next data set is M. kansasii DSM 44162. Kind of data set: In vitro antimycobacterial evaluation (broth dilution MIC). The format is cell-based. The settings on record: Mycobacterium kansasii, DSM44162, 168 h; M. kansasii DSM 44162, 7 days, 37 °C.
Data set [4] concerns Mycobacterium marinum CAMP 5644. The description is as above. The format is cell-based. As to conditions: Mycobacterium marinum, CAMP5644, 504 h, M. marinum CAMP 5644, 21 days, 28 °C.
The test system of data set [5] is Mycobacterium avium subsp. paratuberculosis (CIT03). Kind of data set: In vitro antimycobacterial evaluation (alamarBlue MIC). It is filed as cell-based. The settings on record: 264 h, M. avium paratuberculosis CIT03, 11 days, 37 °C. The procedure, abridged:
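Clinical isolate CIT03 in Middlebrook broth with OADC and mycobactin J, inoculum McFarland No. 1 diluted 1:20, exposed to compound at 1,000 to 8 µg/mL final in duplicate, 37 °C for 11 days. alamarBlue added, read at 570/600 nm after 24 h; MIC is the lowest concentration preventing blue-to-pink change.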

Converted amounts (≈) assume the structure as drawn. A value given as a limit tells only on which side of the number the result lay.

The record followed here is PMC6270026, “Antibacterial and Herbicidal Activity of Ring-Substituted 2-Hydroxynaphthalene-1-carboxanilides” (Molecules, 2013).

Regarding `O=C(Nc1ccccc1Cl)c1c(O)ccc2ccccc12` [Compound 5a, N-(2-chlorophenyl)-2-hydroxynaphthalene-1-carboxamide], in data set [1], the IC50 (as a rule, the point on the concentration scale where inhibition reaches its midpoint) stood at 49.6 µM. The MIC (commonly the lowest concentration found to suppress growth) was determined as 107 µM (≈ 31.9 µg/mL) against M. smegmatis ATCC 700084, 107 µM (≈ 31.9 µg/mL) in the data set on M. kansasii DSM 44162, 107 µM (≈ 31.9 µg/mL) in data set [4] and 202 µM (≈ 60.1 µg/mL) in data set [5]. Also, in data set [2], the log k is reported as 0.8984. In data set [3], the “lethal effect on THP-1 cells” value was “did not lead to significant lethal effects”.

As for `O=C(Nc1ccccc1C(F)(F)F)c1c(O)ccc2ccccc12` [Compound 7a, 2-Hydroxy-N-(2-trifluoromethylphenyl)naphthalene-1-carboxamide], the IC50 in data set [1] stood at 153 µM. In addition, the minimal inhibitory concentration (MIC) in the data set on M. smegmatis ATCC 700084 was 386 µM (≈ 128 µg/mL); with M. kansasii DSM 44162, 96.6 µM (≈ 32 µg/mL); in data set [4], 96.6 µM (≈ 32 µg/mL); in data set [5], 377 µM (≈ 125 µg/mL). The log k in data set [2] is given as 0.8353. For the same molecule, the “lethal effect on THP-1 cells” value in data set [3] is on record as “did not lead to significant lethal effects”.

In turn, `O=C(Nc1cccc(C(F)(F)F)c1)c1c(O)ccc2ccccc12` [Compound 7b, 2-Hydroxy-N-(3-trifluoromethylphenyl)naphthalene-1-carboxamide] displayed an IC50 in data set [1] of 45.6 µM. Moreover, the MIC against M. smegmatis ATCC 700084 was > 748 µM; in the data set on M. kansasii DSM 44162, 93.5 µM (≈ 31 µg/mL); in data set [4], > 748 µM; in data set [5] it was 731 µM (≈ 242 µg/mL). Further, the log k in data set [2] was determined as 0.9411. For the same molecule, the “lethal effect on THP-1 cells” value in data set [3] is recorded as “did not lead to significant lethal effects”.
